Results published in US20250101023A1, “HETEROARYL DERIVATIVE AND USES THEREOF” (IUCF-HYU (INDUSTRY-UNIVERSITY COOPERATION FOUNDATION …, priority 2022, published 2025).

Assays:
[1] = target: BLK (Homo sapiens (Human), UniProt P51451); test: Kinome-wide profiling; assay type: biochemical; conditions: read-out: % Residual Activity (mean)
[2] = target: PKCg (Homo sapiens (Human), UniProt P05129); test: Kinome-wide profiling; assay type: biochemical; conditions: read-out: % Residual Activity (mean)
[3] = tested on: RAF1; test: Kinome-wide profiling; assay type: biochemical, human; conditions: 10 μM
[4] = target: LATS1 (Homo sapiens (Human), UniProt O95835); test: Kinome-wide profiling; assay type: biochemical; conditions: read-out: % Residual Activity (mean)
[5] = target: DYRK3 (Homo sapiens (Human), UniProt O43781); test: Kinome-wide profiling; assay type: biochemical; conditions: read-out: % Residual Activity (mean)
[6] = target: CDK5/p35 (Homo sapiens (Human), UniProt Q00535); test: Kinome-wide profiling; assay type: biochemical; conditions: read-out: % Residual Activity (mean)
[7] = target: LRRK2 (Homo sapiens (Human), UniProt Q5S007); test: Kinome-wide profiling; assay type: biochemical; conditions: read-out: % Residual Activity (mean)
[8] = target: CAMK2b (Homo sapiens (Human), UniProt Q13554); test: Kinome-wide profiling; assay type: biochemical; conditions: read-out: % Residual Activity (mean)
[9] = target: ROCK1 (Homo sapiens (Human), UniProt Q13464); test: Kinome-wide profiling; assay type: biochemical; conditions: read-out: % Residual Activity (mean)
[10] = target: CHK2 (Homo sapiens (Human), UniProt O96017); test: Kinome-wide profiling; assay type: biochemical; conditions: read-out: % Residual Activity (mean)
[11] = target: PRKX (Homo sapiens (Human), UniProt P51817); test: Kinome-wide profiling; assay type: biochemical; conditions: read-out: % Residual Activity (mean)
[12] = target: ERN1/IRE1 (Homo sapiens (Human), UniProt O75460); test: Kinome-wide profiling; assay type: biochemical; conditions: read-out: % Residual Activity (mean)
[13] = target: MARK3 (Homo sapiens (Human), UniProt P27448); test: Kinome-wide profiling; assay type: biochemical; conditions: read-out: % Residual Activity (mean)
[14] = target: TAOK2/TAO1 (Homo sapiens (Human), UniProt Q9UL54); test: Kinome-wide profiling; assay type: biochemical; conditions: read-out: % Residual Activity (mean)
[15] = tested on: Pol II CTD (Ser2) phosphorylation; test: Western blot, Pol II CTD Ser2 phosphorylation; assay type: cell-based; conditions: SK-Br3 and HCC1954 cell lines, 40 and 200 nM, 2 hours
[16] = target: PKCIOTA (Homo sapiens (Human), UniProt P41743); test: Kinome-wide profiling; assay type: biochemical; conditions: read-out: % Residual Activity (mean)
[17] = target: RSK4 (Homo sapiens (Human), UniProt Q9UK32); test: Kinome-wide profiling; assay type: biochemical; conditions: read-out: % Residual Activity (mean)
[18] = target: IKKa/CHUK (Homo sapiens (Human), UniProt O15111); test: Kinome-wide profiling; assay type: biochemical; conditions: read-out: % Residual Activity (mean)
[19] = target: WNK1 (Homo sapiens (Human), UniProt Q9H4A3); test: Kinome-wide profiling; assay type: biochemical; conditions: read-out: % Residual Activity (mean)
[20] = target: CDK9/cyclin K (Homo sapiens (Human), UniProt P50750); test: Kinome-wide profiling; assay type: biochemical; conditions: read-out: % Residual Activity (mean)
[21] = target: PIM1 (Homo sapiens (Human), UniProt P11309); test: Kinome-wide profiling; assay type: biochemical; conditions: read-out: % Residual Activity (mean)
[22] = target: MNK1 (Homo sapiens (Human), UniProt Q9BUB5); test: Kinome-wide profiling; assay type: biochemical; conditions: read-out: % Residual Activity (mean)
[23] = target: ROS/ROS1 (Homo sapiens (Human), UniProt P08922); test: Kinome-wide profiling; assay type: biochemical; conditions: read-out: % Residual Activity (mean)
[24] = target: TXK (Homo sapiens (Human), UniProt P42681); test: Kinome-wide profiling; assay type: biochemical; conditions: read-out: % Residual Activity (mean)
[25] = target: RIPK4 (Homo sapiens (Human), UniProt P57078); test: Kinome-wide profiling; assay type: biochemical; conditions: read-out: % Residual Activity (mean)
[26] = target: CK1g1 (Homo sapiens (Human), UniProt Q9HCP0); test: Kinome-wide profiling; assay type: biochemical; conditions: read-out: % Residual Activity (mean)
[27] = target: p70S6Kb/RPS6KB2 (Homo sapiens (Human), UniProt Q9UBS0); test: Kinome-wide profiling; assay type: biochemical; conditions: read-out: % Residual Activity (mean)
[28] = target: TYK1/LTK (Homo sapiens (Human), UniProt P29376); test: Kinome-wide profiling; assay type: biochemical; conditions: read-out: % Residual Activity (mean)
[29] = target: CDC7/DBF4 (Homo sapiens (Human), UniProt O00311); test: Kinome-wide profiling; assay type: biochemical; conditions: read-out: % Residual Activity (mean)
[30] = target: NEK6 (Homo sapiens (Human), UniProt Q9HC98); test: Kinome-wide profiling; assay type: biochemical; conditions: read-out: % Residual Activity (mean)
[31] = target: CDK7/cyclin H (Homo sapiens (Human), UniProt P50613); test: Kinome-wide profiling; assay type: biochemical; conditions: read-out: % Residual Activity (mean)
[32] = target: CAMKK1 (Homo sapiens (Human), UniProt Q8N5S9); test: Kinome-wide profiling; assay type: biochemical; conditions: read-out: % Residual Activity (mean)
[33] = target: ASK1/MAP3K5 (Homo sapiens (Human), UniProt Q99683); test: Kinome-wide profiling; assay type: biochemical; conditions: read-out: % Residual Activity (mean)
[34] = target: TNIK (Homo sapiens (Human), UniProt Q9UKE5); test: Kinome-wide profiling; assay type: biochemical; conditions: read-out: % Residual Activity (mean)
[35] = target: PKCb1 (Homo sapiens (Human), UniProt P05771); test: Kinome-wide profiling; assay type: biochemical; conditions: read-out: % Residual Activity (mean)
[36] = target: CDK18/cyclin Y (PCTK3) (Homo sapiens (Human), UniProt Q07002); test: Kinome-wide profiling; assay type: biochemical; conditions: read-out: % Residual Activity (mean)
[37] = target: MARK1 (Homo sapiens (Human), UniProt Q9P0L2); test: Kinome-wide profiling; assay type: biochemical; conditions: read-out: % Residual Activity (mean)
[38] = target: MST1/STK4 (Homo sapiens (Human), UniProt Q13043); test: Kinome-wide profiling; assay type: biochemical; conditions: read-out: % Residual Activity (mean)
[39] = target: IKKb/IKBKB (Homo sapiens (Human), UniProt O14920); test: Kinome-wide profiling; assay type: biochemical; conditions: read-out: % Residual Activity (mean)

CDK18/cyclin Y (PCTK3), sequence (Q07002 whole entry): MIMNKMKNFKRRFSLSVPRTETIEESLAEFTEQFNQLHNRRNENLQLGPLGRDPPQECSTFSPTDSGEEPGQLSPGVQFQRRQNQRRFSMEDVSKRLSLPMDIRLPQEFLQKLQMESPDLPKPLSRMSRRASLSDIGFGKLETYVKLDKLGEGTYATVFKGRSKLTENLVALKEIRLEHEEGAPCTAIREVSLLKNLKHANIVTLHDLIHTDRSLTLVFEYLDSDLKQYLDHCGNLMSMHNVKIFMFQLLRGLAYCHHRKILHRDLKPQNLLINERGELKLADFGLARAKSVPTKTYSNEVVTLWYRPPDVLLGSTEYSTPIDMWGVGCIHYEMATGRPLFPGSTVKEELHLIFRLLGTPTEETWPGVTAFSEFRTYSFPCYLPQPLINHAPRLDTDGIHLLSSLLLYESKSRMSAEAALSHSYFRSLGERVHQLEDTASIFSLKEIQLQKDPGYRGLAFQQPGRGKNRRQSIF
CDK18/cyclin Y (PCTK3), sequence (Q8ND76 whole entry partner): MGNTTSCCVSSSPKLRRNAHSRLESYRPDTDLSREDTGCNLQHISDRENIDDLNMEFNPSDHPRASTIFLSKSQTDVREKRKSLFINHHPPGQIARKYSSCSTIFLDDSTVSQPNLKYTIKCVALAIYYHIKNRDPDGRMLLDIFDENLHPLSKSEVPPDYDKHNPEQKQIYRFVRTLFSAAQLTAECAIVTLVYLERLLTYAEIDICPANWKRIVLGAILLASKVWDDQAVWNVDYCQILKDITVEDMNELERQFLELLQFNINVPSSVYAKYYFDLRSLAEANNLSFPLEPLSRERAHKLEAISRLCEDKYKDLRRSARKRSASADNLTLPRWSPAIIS
RIPK4, sequence (P57078 whole entry): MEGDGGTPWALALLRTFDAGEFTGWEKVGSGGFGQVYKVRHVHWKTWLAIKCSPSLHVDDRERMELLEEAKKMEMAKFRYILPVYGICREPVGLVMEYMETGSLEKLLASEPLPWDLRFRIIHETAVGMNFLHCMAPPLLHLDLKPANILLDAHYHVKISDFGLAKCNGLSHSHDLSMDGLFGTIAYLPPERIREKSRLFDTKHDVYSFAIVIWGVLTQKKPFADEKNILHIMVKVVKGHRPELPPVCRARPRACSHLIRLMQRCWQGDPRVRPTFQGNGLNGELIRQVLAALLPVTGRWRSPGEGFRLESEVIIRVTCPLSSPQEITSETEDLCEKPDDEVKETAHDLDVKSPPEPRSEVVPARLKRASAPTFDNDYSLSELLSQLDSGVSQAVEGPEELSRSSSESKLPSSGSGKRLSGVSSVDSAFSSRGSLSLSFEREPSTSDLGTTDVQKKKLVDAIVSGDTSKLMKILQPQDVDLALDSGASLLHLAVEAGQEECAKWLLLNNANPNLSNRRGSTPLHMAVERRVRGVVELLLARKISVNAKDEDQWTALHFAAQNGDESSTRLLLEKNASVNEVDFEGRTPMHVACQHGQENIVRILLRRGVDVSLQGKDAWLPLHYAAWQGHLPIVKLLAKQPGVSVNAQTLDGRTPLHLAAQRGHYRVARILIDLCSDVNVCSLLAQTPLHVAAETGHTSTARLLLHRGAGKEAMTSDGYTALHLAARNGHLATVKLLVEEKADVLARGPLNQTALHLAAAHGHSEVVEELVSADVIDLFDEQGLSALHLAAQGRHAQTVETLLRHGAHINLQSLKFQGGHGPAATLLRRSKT
ERN1/IRE1, sequence (O75460 19-977): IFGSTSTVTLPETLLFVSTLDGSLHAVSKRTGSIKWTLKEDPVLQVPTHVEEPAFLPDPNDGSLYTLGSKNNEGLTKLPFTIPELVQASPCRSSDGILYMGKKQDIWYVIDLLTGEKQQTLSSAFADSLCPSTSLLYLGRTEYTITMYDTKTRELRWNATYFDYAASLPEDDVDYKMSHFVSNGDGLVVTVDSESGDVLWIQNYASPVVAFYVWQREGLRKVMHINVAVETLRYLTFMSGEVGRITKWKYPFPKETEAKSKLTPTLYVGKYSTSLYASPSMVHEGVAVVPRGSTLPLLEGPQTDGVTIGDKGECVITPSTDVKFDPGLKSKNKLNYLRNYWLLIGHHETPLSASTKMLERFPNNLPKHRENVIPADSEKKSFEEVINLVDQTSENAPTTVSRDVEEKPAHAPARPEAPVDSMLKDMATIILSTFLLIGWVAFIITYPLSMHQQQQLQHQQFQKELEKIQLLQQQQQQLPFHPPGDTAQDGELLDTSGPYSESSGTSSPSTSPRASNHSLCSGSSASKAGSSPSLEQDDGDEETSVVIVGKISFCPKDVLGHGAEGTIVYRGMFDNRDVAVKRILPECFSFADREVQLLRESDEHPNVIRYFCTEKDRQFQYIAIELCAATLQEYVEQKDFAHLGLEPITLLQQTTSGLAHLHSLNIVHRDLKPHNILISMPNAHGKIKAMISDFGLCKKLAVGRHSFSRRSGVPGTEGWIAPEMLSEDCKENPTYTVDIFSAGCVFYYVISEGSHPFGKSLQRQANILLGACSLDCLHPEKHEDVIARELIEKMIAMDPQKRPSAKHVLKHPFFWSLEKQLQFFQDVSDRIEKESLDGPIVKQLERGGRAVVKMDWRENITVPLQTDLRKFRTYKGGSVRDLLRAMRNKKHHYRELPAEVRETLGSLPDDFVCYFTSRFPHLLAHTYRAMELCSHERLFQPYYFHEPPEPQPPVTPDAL
PKCIOTA, sequence (P41743 whole entry): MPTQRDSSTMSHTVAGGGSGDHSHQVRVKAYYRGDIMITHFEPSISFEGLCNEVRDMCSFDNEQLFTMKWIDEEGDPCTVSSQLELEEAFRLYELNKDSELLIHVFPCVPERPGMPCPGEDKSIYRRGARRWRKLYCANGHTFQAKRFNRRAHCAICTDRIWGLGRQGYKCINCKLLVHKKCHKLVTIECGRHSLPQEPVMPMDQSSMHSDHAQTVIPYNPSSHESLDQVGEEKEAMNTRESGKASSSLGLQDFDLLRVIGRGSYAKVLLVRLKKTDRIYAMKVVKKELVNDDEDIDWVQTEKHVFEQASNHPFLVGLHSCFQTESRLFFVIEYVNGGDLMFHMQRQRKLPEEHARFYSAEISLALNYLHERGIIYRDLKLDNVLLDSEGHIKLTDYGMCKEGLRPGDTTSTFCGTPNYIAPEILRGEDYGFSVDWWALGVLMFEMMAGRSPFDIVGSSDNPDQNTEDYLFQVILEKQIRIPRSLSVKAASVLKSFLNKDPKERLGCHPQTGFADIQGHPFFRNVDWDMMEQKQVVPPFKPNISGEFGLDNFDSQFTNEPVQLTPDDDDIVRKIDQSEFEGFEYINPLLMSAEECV
MARK1, sequence (Q9P0L2 whole entry): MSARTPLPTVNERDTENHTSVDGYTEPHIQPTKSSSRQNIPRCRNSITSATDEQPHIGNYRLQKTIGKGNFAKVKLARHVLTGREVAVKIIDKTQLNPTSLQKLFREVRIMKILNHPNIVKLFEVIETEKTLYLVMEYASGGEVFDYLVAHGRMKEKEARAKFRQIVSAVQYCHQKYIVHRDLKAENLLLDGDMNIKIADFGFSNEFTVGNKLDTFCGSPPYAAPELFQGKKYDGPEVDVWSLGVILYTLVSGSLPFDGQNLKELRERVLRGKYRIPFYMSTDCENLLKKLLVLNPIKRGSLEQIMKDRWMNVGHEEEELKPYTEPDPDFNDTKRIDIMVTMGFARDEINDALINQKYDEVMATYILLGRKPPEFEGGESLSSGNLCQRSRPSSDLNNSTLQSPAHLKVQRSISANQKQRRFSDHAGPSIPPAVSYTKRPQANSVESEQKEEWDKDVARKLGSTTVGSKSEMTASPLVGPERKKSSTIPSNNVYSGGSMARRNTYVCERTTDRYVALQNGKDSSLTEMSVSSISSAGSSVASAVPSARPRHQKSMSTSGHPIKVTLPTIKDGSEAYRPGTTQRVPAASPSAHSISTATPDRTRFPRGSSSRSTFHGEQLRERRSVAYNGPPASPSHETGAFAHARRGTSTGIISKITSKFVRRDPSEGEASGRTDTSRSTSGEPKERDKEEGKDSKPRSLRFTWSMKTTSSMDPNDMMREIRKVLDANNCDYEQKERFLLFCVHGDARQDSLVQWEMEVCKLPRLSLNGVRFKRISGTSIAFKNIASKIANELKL
CK1g1, sequence (Q9HCP0 whole entry): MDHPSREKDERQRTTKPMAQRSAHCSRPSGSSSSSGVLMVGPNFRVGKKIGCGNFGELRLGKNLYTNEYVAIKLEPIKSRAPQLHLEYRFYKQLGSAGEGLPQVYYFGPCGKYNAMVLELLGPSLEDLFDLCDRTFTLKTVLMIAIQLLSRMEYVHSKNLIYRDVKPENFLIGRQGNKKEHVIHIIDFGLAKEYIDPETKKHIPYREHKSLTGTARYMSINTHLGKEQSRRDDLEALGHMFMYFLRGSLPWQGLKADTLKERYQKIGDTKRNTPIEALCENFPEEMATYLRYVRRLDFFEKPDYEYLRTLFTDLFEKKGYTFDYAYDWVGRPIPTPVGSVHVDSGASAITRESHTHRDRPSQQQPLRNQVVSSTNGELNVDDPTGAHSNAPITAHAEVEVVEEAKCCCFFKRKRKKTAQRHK
MST1/STK4, sequence (Q13043 whole entry): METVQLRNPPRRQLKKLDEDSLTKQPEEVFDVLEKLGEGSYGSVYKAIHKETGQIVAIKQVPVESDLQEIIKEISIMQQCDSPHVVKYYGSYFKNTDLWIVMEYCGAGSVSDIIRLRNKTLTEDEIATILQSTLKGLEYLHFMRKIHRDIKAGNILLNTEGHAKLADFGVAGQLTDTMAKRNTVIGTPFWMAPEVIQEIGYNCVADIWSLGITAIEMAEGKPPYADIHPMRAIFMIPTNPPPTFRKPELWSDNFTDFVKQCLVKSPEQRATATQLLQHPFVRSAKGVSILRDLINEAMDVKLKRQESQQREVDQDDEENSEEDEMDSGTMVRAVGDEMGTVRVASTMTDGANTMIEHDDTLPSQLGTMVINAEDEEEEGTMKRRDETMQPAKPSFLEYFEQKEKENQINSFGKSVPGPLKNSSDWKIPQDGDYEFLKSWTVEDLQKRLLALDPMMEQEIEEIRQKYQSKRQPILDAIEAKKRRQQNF

For `CCn1cnc2c(NCc3ccc(-c4ccccn4)nc3)nc(-c3ccc(N)nc3)nc21` [Example 53, N-([2,2′-bipyridin]-5-ylmethyl)-2-(6-aminopyridin-3-yl)-9-ethyl-9H-purin-6-amine], the remaining activity at 10 µM [1] was 66.8%, the remaining activity at 10 µM [2] was 49.5% and the “% Residual Activity (mean)” value [3] was 68.57%. For the same molecule, the remaining activity at 10 µM [4] was 85%, the remaining activity at 10 µM [5] was 58.6% and the remaining activity at 10 µM [6] was 0.67%. For the same molecule, the remaining activity at 10 µM [7] was 17.8%, the remaining activity at 10 µM [8] was 65.2% and the remaining activity at 10 µM [9] was 97.2%. For the same molecule, the remaining activity at 10 µM [10] was 7.39%, the remaining activity at 10 µM [11] was 79.2% and the remaining activity at 10 µM [12] was 50.8%. The remaining activity at 10 µM [13] was 83.1%, the remaining activity at 10 µM [14] was 23.8% and the “Pol II CTD (Ser2) phosphorylation” value [15] was “inhibited Pol II CTD (Ser2) phosphorylation”. For the same molecule, the “Pol II CTD (Ser2) phosphorylation” value ([15]; listed as Compound 53) was “strong dose-dependent suppression of Pol II phosphorylation”, the remaining activity at 10 µM [16] was 86.1% and the remaining activity at 10 µM [17] was 54.2%. For the same molecule, the remaining activity at 10 µM [18] was 71.5%, the remaining activity at 10 µM [19] was 82.5% and the remaining activity at 10 µM [20] was 1.07%. The remaining activity at 10 µM [21] was 97.8%, the remaining activity at 10 µM [22] was 89.2% and the remaining activity at 10 µM [23] was 27.8%. The remaining activity at 10 µM [24] was 34.9%, the remaining activity at 10 µM [25] was 97.8% and the remaining activity at 10 µM [26] was 22.9%. The remaining activity at 10 µM [27] was 92.2%, the remaining activity at 10 µM [28] was 73.6% and the remaining activity at 10 µM [29] was 98.2%. The remaining activity at 10 µM [30] was 92.1%, the remaining activity at 10 µM [31] was 3.81% and the remaining activity at 10 µM [32] was 18.7%. The remaining activity at 10 µM [33] was 18.4%, the remaining activity at 10 µM [34] was 69% and the remaining activity at 10 µM [35] was 89.9%. It also gave a remaining activity at 10 µM [36] of 2.46%, a remaining activity at 10 µM [37] of 81.5% and a remaining activity at 10 µM [38] of 62.2%. For the same molecule, the remaining activity at 10 µM [39] was 83.7%.
